Assay: Reactivity of linker compounds with glutathione
Conditions: pH=7, RT
Procedure: Relative reactivities of the compounds were evaluated towards the small thiol containing peptide glutathione (pH=7, RT). […] Without wishing to be bound by any particular theory, the inventors speculate that the difference in reactivity and stability of the ortho and meta compounds may be attributed to differences in the 3D structures of each compound. Methyl 3,5-bis(2-chloroacetamido)benzoate (1) is predicted to have a planar conformation. Thus, steric hindrance could slow the backside attack of thiolate at the carbon attached to halogen (through an SN2 mechanism). This might explain the greater reactivity of ortho compounds like methyl 3,4-bis(2-chloroacetamido)benzoate (4). Compound (4) is not planar and might afford a more accessible carbon for backside attack.
The reactivity of the linker compounds of the present invention was tested by reaction with glutathione. The following representative reactions are described. Analogous reactions were performed with amide functionalised linker compounds.
The inventors compared the reactivity of various linker compounds of the invention by determining the percentage remaining of the bis-haloacetamide derivatives 14-17 in the presence of glutathione (2.2 equiv.) in aqueous phosphate buffer (100 mM, pH 7.5).

COC(=O)c1ccc(NC(=O)CCl)c(NC(=O)CCl)c1 [Compound 4, methyl 3,4-bis(2-chloroacetamido)benzoate]
relative reactivity towards glutathione (reaction rate): react significantly faster than the 3,5-bis-Cl compound (1)

— patent US20220249687A1, “BIS(2-HALOACETAMIDO)-COMPOUNDS FOR USE AS LINKING AGENTS AND RESULTANT PRODUCTS WHICH COMPRISE ANTIBODIES, HALF-ANTIBODIES AND ANTIBODY FRAGMENTS” (THE UNIVERSITY OF BATH, priority 2019, published 2022)
